From ChEMBL document CHEMBL4715697, “Synthesis and biological activity of benzamide DNA minor groove binders” (2016)

Key:
Assay type in all cases: functional
MOLT-4 = test: Growth inhibition of human MOLT-4 cells assessed as cell growth at 0.01 uM incubated for 48 hrs by sulforhodamine B assay relative to control; conditions: read-out: Activity
EKVX = test: Growth inhibition of human EKVX cells assessed as cell growth at 0.01 uM incubated for 48 hrs by sulforhodamine B assay relative to control; conditions: read-out: Activity
HCC 2998 = test: Growth inhibition of human HCC 2998 cells assessed as cell growth at 0.01 uM incubated for 48 hrs by sulforhodamine B assay relative to control; conditions: read-out: Activity
HCT-116 = test: Growth inhibition of human HCT-116 cells assessed as cell growth at 0.01 uM incubated for 48 hrs by sulforhodamine B assay relative to control; conditions: read-out: Activity
KM12 = test: Growth inhibition of human KM12 cells assessed as cell growth at 0.01 uM incubated for 48 hrs by sulforhodamine B assay relative to control; conditions: read-out: Activity
NCI/ADR-RES = test: Growth inhibition of human NCI/ADR-RES cells assessed as cell growth at 0.01 uM incubated for 48 hrs by sulforhodamine B assay relative to control; conditions: read-out: Activity
ACHN = test: Growth inhibition of human ACHN cells assessed as cell growth at 0.01 uM incubated for 48 hrs by sulforhodamine B assay relative to control; conditions: read-out: Activity
CAKI-1 [1] = test: Growth inhibition of human CAKI-1 cells assessed as cell growth at 0.01 uM incubated for 48 hrs by sulforhodamine B assay relative to control; conditions: read-out: Activity
T47D = test: Growth inhibition of human T47D cells assessed as cell growth at 0.01 uM incubated for 48 hrs by sulforhodamine B assay relative to control; conditions: read-out: Activity
CCRF-CEM = test: Growth inhibition of human CCRF-CEM cells assessed as cell growth at 0.1 uM incubated for 48 hrs by sulforhodamine B assay relative to control; conditions: read-out: Activity
Malme-3M [2] = test: Growth inhibition of human Malme-3M cells assessed as cell growth at 0.1 uM incubated for 48 hrs by sulforhodamine B assay relative to control; conditions: read-out: Activity
SK-OV-3 = test: Growth inhibition of human SK-OV-3 cells assessed as cell growth at 0.1 uM incubated for 48 hrs by sulforhodamine B assay relative to control; conditions: read-out: Activity
CAKI-1 [3] = test: Growth inhibition of human CAKI-1 cells assessed as cell growth at 0.1 uM incubated for 48 hrs by sulforhodamine B assay relative to control; conditions: read-out: Activity
HL-60(TB) = test: Growth inhibition of human HL-60(TB) cells assessed as cell growth at 1 uM incubated for 48 hrs by sulforhodamine B assay relative to control; conditions: read-out: Activity
A549 = test: Growth inhibition of human A549/ATCC cells assessed as cell growth at 1 uM incubated for 48 hrs by sulforhodamine B assay relative to control; conditions: read-out: Activity
HOP-62 = test: Growth inhibition of human HOP-62 cells assessed as cell growth at 1 uM incubated for 48 hrs by sulforhodamine B assay relative to control; conditions: read-out: Activity
NCI-H226 = test: Growth inhibition of human NCI-H226 cells assessed as cell growth at 1 uM incubated for 48 hrs by sulforhodamine B assay relative to control; conditions: read-out: Activity
SF-268 = test: Growth inhibition of human SF-268 cells assessed as cell growth at 1 uM incubated for 48 hrs by sulforhodamine B assay relative to control; conditions: read-out: Activity
SF-295 = test: Growth inhibition of human SF-295 cells assessed as cell growth at 1 uM incubated for 48 hrs by sulforhodamine B assay relative to control; conditions: read-out: Activity
OVCAR-4 = test: Growth inhibition of human OVCAR-4 cells assessed as cell growth at 1 uM incubated for 48 hrs by sulforhodamine B assay relative to control; conditions: read-out: Activity
TK-10 = test: Growth inhibition of human TK-10 cells assessed as cell growth at 1 uM incubated for 48 hrs by sulforhodamine B assay relative to control; conditions: read-out: Activity
MCF7 [4] = test: Growth inhibition of human MCF7 cells assessed as cell growth at 1 uM incubated for 48 hrs by sulforhodamine B assay relative to control; conditions: read-out: Activity
RPMI-8226 [5] = test: Growth inhibition of human RPMI-8226 cells assessed as cell growth at 100 uM incubated for 48 hrs by sulforhodamine B assay relative to control; conditions: read-out: Activity
SF-539 = test: Growth inhibition of human SF-539 cells assessed as cell growth at 100 uM incubated for 48 hrs by sulforhodamine B assay relative to control; conditions: read-out: Activity
Malme-3M [6] = test: Growth inhibition of human Malme-3M cells assessed as cell growth at 100 uM incubated for 48 hrs by sulforhodamine B assay relative to control; conditions: read-out: Activity
MCF7 [7] = test: Growth inhibition of human MCF7 cells assessed as cell growth at 100 uM incubated for 48 hrs by sulforhodamine B assay relative to control; conditions: read-out: Activity
Hs-578T = test: Growth inhibition of human Hs-578T cells assessed as cell growth at 100 uM incubated for 48 hrs by sulforhodamine B assay relative to control; conditions: read-out: Activity
RPMI-8226 [8] = test: Growth inhibition of human RPMI-8226 cells incubated for 48 hrs by sulforhodamine B assay
NCI-H23 = test: Growth inhibition of human NCI-H23 cells incubated for 48 hrs by sulforhodamine B assay
SK-MEL-2 = test: Growth inhibition of human SK-MEL-2 cells incubated for 48 hrs by sulforhodamine B assay
SK-MEL-5 = test: Growth inhibition of human SK-MEL-5 cells incubated for 48 hrs by sulforhodamine B assay
UACC-62 = test: Growth inhibition of human UACC-62 cells incubated for 48 hrs by sulforhodamine B assay
UO-31 = test: Growth inhibition of human UO-31 cells incubated for 48 hrs by sulforhodamine B assay
MDA-MB-231 = test: Growth inhibition of human MDA-MB-231 cells incubated for 48 hrs by sulforhodamine B assay
[9] = read-out: LC50 (the source's name)
[10] = read-out: pLC50 (the source's name) (converted)

CC(=O)Nc1cc(CO[Si](C)(C)C(C)(C)C)cc(NC(=O)c2ccc(C(=O)Nc3cccc(NC(=O)CCCN(C)C)c3)cc2)c1
88%: growth at 100 µM (SF-539)
92%: growth at 0.01 µM (CAKI-1 [1]) | growth at 0.1 µM (Malme-3M [2]) | growth at 1 µM (NCI-H226)
104%: growth at 0.01 µM (HCT-116) | growth at 100 µM (RPMI-8226 [5])
91%: growth at 0.1 µM (CAKI-1 [3])
> 75.9 µM: GI50 (RPMI-8226 [8]; read-out: pGI50 (converted)) | CC50 (RPMI-8226 [8]; [10]) | TGI (RPMI-8226 [8]; read-out: pTGI) | GI50 (NCI-H23; read-out: pGI50 (converted)) | CC50 (NCI-H23; [10]) | TGI (NCI-H23; read-out: pTGI) | GI50 (SK-MEL-2; read-out: pGI50 (converted)) | CC50 (SK-MEL-2; [10]) | TGI (SK-MEL-2; read-out: pTGI) | GI50 (SK-MEL-5; read-out: pGI50 (converted)) | LC50 (SK-MEL-5; read-out: pLC50 (converted)) | TGI (SK-MEL-5; read-out: pTGI) | GI50 (UACC-62; read-out: pGI50 (converted)) | CC50 (UACC-62; [10]) | TGI (UACC-62; read-out: pTGI) | GI50 (UO-31; read-out: pGI50 (converted)) | CC50 (UO-31; [10]) | TGI (UO-31; read-out: pTGI) | GI50 (MDA-MB-231; read-out: pGI50 (converted)) | CC50 (MDA-MB-231; [10]) | TGI (MDA-MB-231; read-out: pTGI)
87%: growth at 0.01 µM (MOLT-4)
99%: growth at 0.01 µM (T47D)
98%: growth at 0.01 µM (HCC 2998) | growth at 0.01 µM (KM12) | growth at 0.1 µM (CCRF-CEM) | growth at 0.1 µM (SK-OV-3)
89%: growth at 100 µM (Hs-578T)
111%: growth at 1 µM (TK-10)
> 75 µM: GI50 (RPMI-8226 [8]; read-out: GI50) | CC50 (RPMI-8226 [8]; [9]) | TGI (RPMI-8226 [8]; read-out: TGI) | GI50 (NCI-H23; read-out: GI50) | CC50 (NCI-H23; [9]) | TGI (NCI-H23; read-out: TGI) | GI50 (SK-MEL-2; read-out: GI50) | CC50 (SK-MEL-2; [9]) | TGI (SK-MEL-2; read-out: TGI) | GI50 (SK-MEL-5; read-out: GI50) | LC50 (SK-MEL-5; read-out: LC50) | TGI (SK-MEL-5; read-out: TGI) | GI50 (UACC-62; read-out: GI50) | CC50 (UACC-62; [9]) | TGI (UACC-62; read-out: TGI) | GI50 (UO-31; read-out: GI50) | CC50 (UO-31; [9]) | TGI (UO-31; read-out: TGI) | GI50 (MDA-MB-231; read-out: GI50) | CC50 (MDA-MB-231; [9]) | TGI (MDA-MB-231; read-out: TGI)
97%: growth at 1 µM (HOP-62)
100%: growth at 0.01 µM (ACHN) | growth at 1 µM (A549) | growth at 1 µM (OVCAR-4)
101%: growth at 0.01 µM (EKVX) | growth at 1 µM (SF-268) | growth at 1 µM (MCF7 [4])
127%: growth at 1 µM (SF-295)
32%: growth at 100 µM (MCF7 [7])
33%: growth at 100 µM (Malme-3M [6])
103%: growth at 0.01 µM (NCI/ADR-RES)
86%: growth at 1 µM (HL-60(TB))
